Assay results published in PubChem BioAssay AID1963967 (Molecular Pharmacology Branch, DTP, NCI, 2024).

Test system: 855422-203-R-J1-PDC spheroids with HUVEC/MSC, viability
Assay: Anticancer human tumor 855422-203-R-J1-PDC patient-derived bladder carcinoma cell line growth inhibition [PI3K]
Details: for IC50: curve of first compound; for viability, T/C: stronger effect = lower value
Method in brief: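 Three cell types, namely tumor cells, endothelial cells and mesenchymal stem cells, formed each spheroid. Combinations with four PI3K inhibitors were screened at clinically achievable concentrations decreasing by half-log, and spheroid viability was recorded.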

[1] = second compound 0.0316 µM, first compound 0.0316 µM
[2] = second compound 0.0316 µM, first compound 0.1 µM
[3] = second compound 0.0316 µM, first compound 0.316 µM
[4] = second compound 0.0316 µM, first compound 1 µM
[5] = second compound 0.0316 µM, first compound 3.16 µM
[6] = second compound 0.0316 µM, first compound 10 µM
[7] = second compound 0.1 µM, first compound 0.0316 µM
[8] = second compound 0.1 µM, first compound 0.1 µM
[9] = second compound 0.1 µM, first compound 0.316 µM
[10] = second compound 0.1 µM, first compound 1 µM
[11] = second compound 0.1 µM, first compound 3.16 µM
[12] = second compound 0.1 µM, first compound 10 µM
[13] = second compound 0.316 µM, first compound 0.0316 µM
[14] = second compound 0.316 µM, first compound 0.1 µM
[15] = second compound 0.316 µM, first compound 0.316 µM
[16] = second compound 0.316 µM, first compound 1 µM
[17] = second compound 0.316 µM, first compound 3.16 µM
[18] = second compound 0.316 µM, first compound 10 µM
[19] = second compound 1 µM, first compound 0.0316 µM
[20] = second compound 1 µM, first compound 0.1 µM
[21] = second compound 1 µM, first compound 0.316 µM
[22] = second compound 1 µM, first compound 1 µM
[23] = second compound 1 µM, first compound 3.16 µM
[24] = second compound 1 µM, first compound 10 µM
[25] = second compound 3.16 µM, first compound 0.0316 µM
[26] = second compound 3.16 µM, first compound 0.1 µM
[27] = second compound 3.16 µM, first compound 0.316 µM
[28] = second compound 3.16 µM, first compound 1 µM
[29] = second compound 3.16 µM, first compound 3.16 µM
[30] = second compound 3.16 µM, first compound 10 µM
[31] = second compound 10 µM, first compound 0.0316 µM
[32] = second compound 10 µM, first compound 0.1 µM
[33] = second compound 10 µM, first compound 0.316 µM
[34] = second compound 10 µM, first compound 1 µM
[35] = second compound 10 µM, first compound 3.16 µM
[36] = second compound 10 µM, first compound 10 µM
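Also: agents incubated with spheroids for one week before read-out.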
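For viability, T/C in this document: 100% = DMSO vehicle-treated control wells.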

## C=CC(=O)N1CCN(c2nc(=O)n(-c3c(C)ccnc3C(C)C)c3nc(-c4c(O)cccc4F)c(F)cc23)C(C)C1 (stereo not given) + CC(Nc1ncnc2nc[nH]c12)c1cc2cccc(Cl)c2c(=O)n1-c1ccccc1
Second compound 0.0316 µM
  IC50: > 10 µM
Second compound 0.1 µM
  IC50: > 10 µM
Second compound 0.316 µM
  IC50: > 10 µM
Second compound 1 µM
  IC50: > 10 µM
Second compound 3.16 µM
  IC50: > 10 µM
Second compound 10 µM
  IC50: > 10 µM
[1]
  viability, T/C: 107%
[2]
  viability, T/C: 91.1%
[3]
  viability, T/C: 112%
[4]
  viability, T/C: 95%
[5]
  viability, T/C: 128%
[6]
  viability, T/C: 133%
[7]
  viability, T/C: 102%
[8]
  viability, T/C: 90.7%
[9]
  viability, T/C: 109%
[10]
  viability, T/C: 110%
[11]
  viability, T/C: 119%
[12]
  viability, T/C: 129%
[13]
  viability, T/C: 97.5%
[14]
  viability, T/C: 92%
[15]
  viability, T/C: 98.3%
[16]
  viability, T/C: 121%
[17]
  viability, T/C: 122%
[18]
  viability, T/C: 122%
[19]
  viability, T/C: 100%
[20]
  viability, T/C: 98.7%
[21]
  viability, T/C: 112%
[22]
  viability, T/C: 117%
[23]
  viability, T/C: 122%
[24]
  viability, T/C: 110%
[25]
  viability, T/C: 102%
[26]
  viability, T/C: 102%
[27]
  viability, T/C: 104%
[28]
  viability, T/C: 115%
[29]
  viability, T/C: 116%
[30]
  viability, T/C: 101%
[31]
  viability, T/C: 108%
[32]
  viability, T/C: 90.4%
[33]
  viability, T/C: 104%
[34]
  viability, T/C: 102%
[35]
  viability, T/C: 115%
[36]
  viability, T/C: 105%

## CC(C)NCC(C(=O)N1CCN(c2ncnc3c2C(C)CC3O)CC1)c1ccc(Cl)cc1 (stereo not given) + CC(Nc1ncnc2nc[nH]c12)c1cc2cccc(Cl)c2c(=O)n1-c1ccccc1
Second compound 0.0316 µM
  IC50: 1.16 µM
Second compound 0.1 µM
  IC50: 1.12 µM
Second compound 0.316 µM
  IC50: 1.13 µM
Second compound 1 µM
  IC50: 1.13 µM
Second compound 3.16 µM
  IC50: 1.28 µM
Second compound 10 µM
  IC50: 0.937 µM
[1]
  viability, T/C: 114%
[2]
  viability, T/C: 83.2%
[3]
  viability, T/C: 83.9%
[4]
  viability, T/C: 46.1%
[5]
  viability, T/C: 34.5%
[6]
  viability, T/C: 16.8%
[7]
  viability, T/C: 103%
[8]
  viability, T/C: 88.2%
[9]
  viability, T/C: 70%
[10]
  viability, T/C: 51.4%
[11]
  viability, T/C: 34.9%
[12]
  viability, T/C: 19%
[13]
  viability, T/C: 101%
[14]
  viability, T/C: 90.4%
[15]
  viability, T/C: 75.5%
[16]
  viability, T/C: 51.7%
[17]
  viability, T/C: 31.9%
[18]
  viability, T/C: 18.8%
[19]
  viability, T/C: 88.6%
[20]
  viability, T/C: 93%
[21]
  viability, T/C: 81.3%
[22]
  viability, T/C: 50.1%
[23]
  viability, T/C: 32.8%
[24]
  viability, T/C: 19.5%
[25]
  viability, T/C: 88.4%
[26]
  viability, T/C: 81.8%
[27]
  viability, T/C: 73.1%
[28]
  viability, T/C: 47.6%
[29]
  viability, T/C: 40%
[30]
  viability, T/C: 16.3%
[31]
  viability, T/C: 85.3%
[32]
  viability, T/C: 81.9%
[33]
  viability, T/C: 69.8%
[34]
  viability, T/C: 47.1%
[35]
  viability, T/C: 30.1%
[36]
  viability, T/C: 15.2%

## CCN1CCN(Cc2ccc(Nc3ncc(F)c(-c4cc(F)c5nc(C)n(C(C)C)c5c4)n3)nc2)CC1 + CC(Nc1ncnc2nc[nH]c12)c1cc2cccc(Cl)c2c(=O)n1-c1ccccc1
Second compound 0.0316 µM
  IC50: > 1 µM
Second compound 0.1 µM
  IC50: > 1 µM
Second compound 0.316 µM
  IC50: > 1 µM
Second compound 1 µM
  IC50: 0.885 µM
Second compound 3.16 µM
  IC50: 0.497 µM
Second compound 10 µM
  IC50: 0.063 µM
Second compound 0.0316 µM, first compound 0.00316 µM
  viability, T/C: 113%
Second compound 0.0316 µM, first compound 0.01 µM
  viability, T/C: 93.7%
[1]
  viability, T/C: 108%
[2]
  viability, T/C: 88.6%
[3]
  viability, T/C: 76.5%
[4]
  viability, T/C: 62.2%
Second compound 0.1 µM, first compound 0.00316 µM
  viability, T/C: 108%
Second compound 0.1 µM, first compound 0.01 µM
  viability, T/C: 97.8%
[7]
  viability, T/C: 108%
[8]
  viability, T/C: 86.5%
[9]
  viability, T/C: 83.1%
[10]
  viability, T/C: 62%
Second compound 0.316 µM, first compound 0.00316 µM
  viability, T/C: 95.2%
Second compound 0.316 µM, first compound 0.01 µM
  viability, T/C: 112%
[13]
  viability, T/C: 109%
[14]
  viability, T/C: 94.4%
[15]
  viability, T/C: 68.2%
[16]
  viability, T/C: 53.7%
Second compound 1 µM, first compound 0.00316 µM
  viability, T/C: 97.5%
Second compound 1 µM, first compound 0.01 µM
  viability, T/C: 104%
[19]
  viability, T/C: 105%
[20]
  viability, T/C: 83.1%
[21]
  viability, T/C: 69%
[22]
  viability, T/C: 47.3%
Second compound 3.16 µM, first compound 0.00316 µM
  viability, T/C: 98.2%
Second compound 3.16 µM, first compound 0.01 µM
  viability, T/C: 96.6%
[25]
  viability, T/C: 89.8%
[26]
  viability, T/C: 75.7%
[27]
  viability, T/C: 51.5%
[28]
  viability, T/C: 46.2%
Second compound 10 µM, first compound 0.00316 µM
  viability, T/C: 81.9%
Second compound 10 µM, first compound 0.01 µM
  viability, T/C: 83.2%
[31]
  viability, T/C: 55.2%
[32]
  viability, T/C: 44.9%
[33]
  viability, T/C: 34.9%
[34]
  viability, T/C: 25.9%

## Cn1ncc(Cl)c1-c1cc(C(=O)NC(CN)Cc2cccc(F)c2)sc1Cl (stereo not given) + CC(Nc1ncnc2nc[nH]c12)c1cc2cccc(Cl)c2c(=O)n1-c1ccccc1
Second compound 0.0316 µM
  IC50: 0.572 µM
Second compound 0.1 µM
  IC50: 0.706 µM
Second compound 0.316 µM
  IC50: 0.634 µM
Second compound 1 µM
  IC50: 0.695 µM
Second compound 3.16 µM
  IC50: 0.454 µM
Second compound 10 µM
  IC50: 0.411 µM
[1]
  viability, T/C: 98.1%
[2]
  viability, T/C: 78.2%
[3]
  viability, T/C: 58%
[4]
  viability, T/C: 41.9%
[5]
  viability, T/C: 25.4%
[6]
  viability, T/C: 9.19%
[7]
  viability, T/C: 95.2%
[8]
  viability, T/C: 84.5%
[9]
  viability, T/C: 59.3%
[10]
  viability, T/C: 46.4%
[11]
  viability, T/C: 25.1%
[12]
  viability, T/C: 8.79%
[13]
  viability, T/C: 92.2%
[14]
  viability, T/C: 74.7%
[15]
  viability, T/C: 55.5%
[16]
  viability, T/C: 48.3%
[17]
  viability, T/C: 25.9%
[18]
  viability, T/C: 6.18%
[19]
  viability, T/C: 79.8%
[20]
  viability, T/C: 75.4%
[21]
  viability, T/C: 62.1%
[22]
  viability, T/C: 45%
[23]
  viability, T/C: 22.5%
[24]
  viability, T/C: 10%
[25]
  viability, T/C: 87.5%
[26]
  viability, T/C: 75.3%
[27]
  viability, T/C: 52.4%
[28]
  viability, T/C: 39.5%
[29]
  viability, T/C: 21.9%
[30]
  viability, T/C: 8.05%
[31]
  viability, T/C: 83.4%
[32]
  viability, T/C: 71.8%
[33]
  viability, T/C: 52.5%
[34]
  viability, T/C: 36.9%
[35]
  viability, T/C: 20.1%
[36]
  viability, T/C: 5.58%

## Cn1nccc1Nc1nccc(-c2ccn(C(CO)c3ccc(Cl)c(F)c3)c(=O)c2)n1 (stereo not given) + CC(Nc1ncnc2nc[nH]c12)c1cc2cccc(Cl)c2c(=O)n1-c1ccccc1
Second compound 0.0316 µM
  IC50: 8.7 µM
Second compound 0.1 µM
  IC50: 9.94 µM
Second compound 0.316 µM
  IC50: 8.44 µM
Second compound 1 µM
  IC50: 9 µM
Second compound 3.16 µM
  IC50: 7.46 µM
Second compound 10 µM
  IC50: 4.01 µM
[1]
  viability, T/C: 113%
[2]
  viability, T/C: 94.6%
[3]
  viability, T/C: 116%
[4]
  viability, T/C: 98.2%
[5]
  viability, T/C: 91%
[6]
  viability, T/C: 44.3%
[7]
  viability, T/C: 107%
[8]
  viability, T/C: 98.9%
[9]
  viability, T/C: 109%
[10]
  viability, T/C: 101%
[11]
  viability, T/C: 92.7%
[12]
  viability, T/C: 49.5%
[13]
  viability, T/C: 111%
[14]
  viability, T/C: 98.7%
[15]
  viability, T/C: 105%
[16]
  viability, T/C: 106%
[17]
  viability, T/C: 90%
[18]
  viability, T/C: 43.5%
[19]
  viability, T/C: 107%
[20]
  viability, T/C: 112%
[21]
  viability, T/C: 107%
[22]
  viability, T/C: 103%
[23]
  viability, T/C: 88.1%
[24]
  viability, T/C: 45.7%
[25]
  viability, T/C: 100%
[26]
  viability, T/C: 107%
[27]
  viability, T/C: 107%
[28]
  viability, T/C: 103%
[29]
  viability, T/C: 84.4%
[30]
  viability, T/C: 38.2%
[31]
  viability, T/C: 88.5%
[32]
  viability, T/C: 81.3%
[33]
  viability, T/C: 87.4%
[34]
  viability, T/C: 80%
[35]
  viability, T/C: 56.5%
[36]
  viability, T/C: 25.1%
